# Where two headings read alike, the source gives them in different places.
# System: granulocyte macrophage (CFU-GM), erythroid (BFU-E), and multipotential (CFU-GEMM) progenitor cells
# Settings: mice; for Absolute Number Progenitors Per ML Blood, Methylcellulose Culture, BFU-E / Absolute Number Progenitors Per ML Blood, Methylcellulose Culture, CFU-GEMM / Absolute Number Progenitors Per ML Blood, Methylcellulose Culture, CFU-GM: 1 hour post administration; for Absolute Progenitors Per ML Blood, Methylcellulose Culture, BFU-E / Absolute Progenitors Per ML Blood, Methylcellulose Culture, CFU-GEMM / Absolute Progenitors Per ML Blood, Methylcellulose Culture, CFU-GM: single s.c. injection of 5 mg/Kg
# Procedure: Progenitors were stimulated to form colonies in vitro with the combination of 1U/ml rhu Epo, 50 ng/ml rhu SLF, 5% Vol/Vol pokeweed mitogen mouse spleen cell conditioned medium (PWMSCM), and 0.1 mM hemin. Plates were scored 7 days after incubation.
# [1] = single s.c. injection 2.5 mg/kg
structure (smiles),measurement,setting,value
"c1cc(CN2CCCNCCNCCCNCC2)ccc1CN1CCCNCCNCCCNCC1 [AMD3100, 1,1′-[1,4-phenylene-bis(methylene)]-bis-1,4,8,11-tetraazacyclotetradecane]","Fold Change Compared to Time 0, Progenitors, Methylcellulose Culture, BFU-E",Time 2′,2.07
same,"Fold Change Compared to Time 0, Progenitors, Methylcellulose Culture, CFU-GEMM",Time 2′,1.85
same,"Fold Change Compared to Time 0, Progenitors, Methylcellulose Culture, GM",Time 2′,2.86
same,"Fold Change Compared to Time 0, Progenitors, Methylcellulose Culture, BFU-E",Time 15″,2.72
same,"Fold Change Compared to Time 0, Progenitors, Methylcellulose Culture, CFU-GEMM",Time 15″,3.51
same,"Fold Change Compared to Time 0, Progenitors, Methylcellulose Culture, GM",Time 15″,2.73
same,"Fold Change Compared to Time 0, Progenitors, Methylcellulose Culture, BFU-E",Time 30″,4.24
same,"Fold Change Compared to Time 0, Progenitors, Methylcellulose Culture, CFU-GEMM",Time 30″,4.41
same,"Fold Change Compared to Time 0, Progenitors, Methylcellulose Culture, GM",Time 30″,6.23
same,"Absolute Number Progenitors Per ML Blood, Methylcellulose Culture, BFU-E",single s.c. injection 1 mg/kg,62 Per ML Blood
same,"Absolute Number Progenitors Per ML Blood, Methylcellulose Culture, CFU-GEMM",single s.c. injection 1 mg/kg,27.1 Per ML Blood
same,"Absolute Number Progenitors Per ML Blood, Methylcellulose Culture, CFU-GM",single s.c. injection 1 mg/kg,424 Per ML Blood
same,"Absolute Number Progenitors Per ML Blood, Methylcellulose Culture, BFU-E",[1],98.9 Per ML Blood
same,"Absolute Number Progenitors Per ML Blood, Methylcellulose Culture, CFU-GEMM",[1],70.6 Per ML Blood
same,"Absolute Number Progenitors Per ML Blood, Methylcellulose Culture, CFU-GM",[1],687.6 Per ML Blood
same,"Absolute Number Progenitors Per ML Blood, Methylcellulose Culture, BFU-E",single s.c. injection 5 mg/kg,92.8 Per ML Blood
same,"Absolute Number Progenitors Per ML Blood, Methylcellulose Culture, CFU-GEMM",single s.c. injection 5 mg/kg,69.5 Per ML Blood
same,"Absolute Number Progenitors Per ML Blood, Methylcellulose Culture, CFU-GM",single s.c. injection 5 mg/kg,608.4 Per ML Blood
same,"Absolute Number Progenitors Per ML Blood, Methylcellulose Culture, BFU-E",single s.c. injection 10 mg/kg,120.5 Per ML Blood
same,"Absolute Number Progenitors Per ML Blood, Methylcellulose Culture, CFU-GEMM",single s.c. injection 10 mg/kg,79.8 Per ML Blood
same,"Absolute Number Progenitors Per ML Blood, Methylcellulose Culture, CFU-GM",single s.c. injection 10 mg/kg,825.6 Per ML Blood
same,"Absolute Progenitors Per ML Blood, Methylcellulose Culture, BFU-E",15″,134.5 Per ML Blood
same,"Absolute Progenitors Per ML Blood, Methylcellulose Culture, CFU-GEMM",15″,90.4 Per ML Blood
same,"Absolute Progenitors Per ML Blood, Methylcellulose Culture, CFU-GM",15″,791.6 Per ML Blood
same,"Absolute Progenitors Per ML Blood, Methylcellulose Culture, BFU-E",30″,209.3 Per ML Blood
same,"Absolute Progenitors Per ML Blood, Methylcellulose Culture, CFU-GEMM",30″,113.5 Per ML Blood
same,"Absolute Progenitors Per ML Blood, Methylcellulose Culture, CFU-GM",30″,1805.5 Per ML Blood
same,"Absolute Progenitors Per ML Blood, Methylcellulose Culture, BFU-E",120″,102.3 Per ML Blood
same,"Absolute Progenitors Per ML Blood, Methylcellulose Culture, CFU-GEMM",120″,47.6 Per ML Blood
same,"Absolute Progenitors Per ML Blood, Methylcellulose Culture, CFU-GM",120″,528.7 Per ML Blood

# — patent publication US20100035941A1, “METHODS FOR INCREASING BLOOD FLOW AND/OR PROMOTING TISSUE REGENERATION” (priority 2006, published 2010)
